Results taken from patent publication US20100178286A1, “METHODS AND COMPOSITIONS FOR REDUCING FACIAL LINES AND WRINKLES” (priority 2007, published 2010).

System: epidermis / stratum corneum (skin cell renewal)
Test: Skin cell renewal (dansyl chloride) method
Format: in vivo, human
Conditions: standard positive control; topical, pH 3.0 dissolved in water; vs untreated site
Description: Several test methods were used to evaluate results of the compositions according to the present disclosure. One test method used was the skin cell renewal (dansyl chloride) method. The rate of cell renewal, or the transit time for an epidermal basal cell, to mature and slough off the skin surface can be assessed via a dansyl chloride staining method. As we age the rate of renewal decreases from about 15-20 days for a person to about 30 days for a person. […]
The full thickness epidermis was stained with a fluorescent dye as follows: 5% ultra pure dansyl chloride was milled into petrolatum and applied as a very thin film to standard adhesive bandages that were 2 cm by 3 cm. […] Staining was confirmed by viewing the sites with a long wave (ultra violet) UV light source to detect dansyl chloride fluorescence. […]
To assess product effects on cell renewal rates, test products were applied topically twice a day in a randomized fashion to the test sites with an untreated site serving as a control. […] Removal of the stain, reflecting loss of stratum corneum was monitored daily with the UV light source until complete removal, usually occurring in 3-4 weeks, of all stain was noted. The percentage increase in cell renewal was calculated as follows: […]

CC(O)C(=O)O (stereo not shown) [5% lactic acid, lactic acid]
increases in renewal rates (percentage increase in cell renewal): 25-30%
